Experimental data taken from patent US11090313B2, “Methods for inhibiting muscle atrophy” (UNIVERSITY OF IOWA RESEARCH FOUNDATION, priority 2010, dated 2021).

System: gastrocnemius muscle mRNA
Assay: Exon expression arrays of gastrocnemius muscle mRNA in mice fed ursolic acid
Format: in vivo, mouse
Conditions: 0.27% ursolic acid in chow 5 weeks
Procedure: Following harvest, skeletal muscle samples were immediately placed in RNAlater (Ambion) and stored at −80° C. until further use. […] These raw microarray data from humans and mice have been deposited in NCBI's Gene Expression Omnibus (“GEO”) and are accessible through GEO Series accession numbers GSE28016 and GSE28017, respectively. Exon array studies of the effects of fasting on mouse skeletal muscle, and the effects of spinal cord injury on human skeletal muscle were described previously (Adams C M, et al. (2011) Muscle & nerve 43(1):65-75; Ebert S M, et al. (2010) Molecular Endocrinology 24(4):790-799).
To test this hypothesis, an unbiased approach was used, specifically exon expression arrays were used to analyze gastrocnemius muscle mRNA expression in mice that had been fed diets lacking or containing ursolic acid for 5 weeks. […] Each array assessed pooled gastrocnemius RNA from two mice. Stringent criteria were used for ursolic acid-induced effects on mRNA levels (P<0.005), and mRNAs with low levels of expression were disregarded (i.e. only transcripts that were increased to a mean log2 hybridization signal ≥8, or repressed from a mean log2 hybridization signal ≥8 were included).

Compound: C[C@H]1[C@H](C)CC[C@]2(C(=O)O)CC[C@]3(C)C(=CC[C@@H]4[C@@]5(C)CC[C@H](O)C(C)(C)[C@@H]5CC[C@]43C)[C@H]12 [ursolic acid]
- levels of mRNAs encoding myostatin, twist or myogenin (gastrocnemius): did not alter levels of mRNAs encoding myostatin
- levels of IGF1 exons (exons 2-6) (gastrocnemius exon arrays): increased levels of all measured IGF1 exons
- 2310016M24Rik mRNA Change (mean log2, ursolic acid diet minus control diet) (mice, gastrocnemius): 0.12 log2
- 2610507B11Rik mRNA Change (mean log2, ursolic acid diet minus control diet) (mice, gastrocnemius): 0.14 log2
- Acadm mRNA Change (mean log2, ursolic acid diet minus control diet) (mice, gastrocnemius): −0.11 log2
- Adprhl1 mRNA Change (mean log2, ursolic acid diet minus control diet) (mice, gastrocnemius): −0.26 log2
- Ahsa2 mRNA Change (mean log2, ursolic acid diet minus control diet) (mice, gastrocnemius): 0.18 log2
- Arfgap2 mRNA Change (mean log2, ursolic acid diet minus control diet) (mice, gastrocnemius): 0.30 log2
- Asb5 mRNA Change (mean log2, ursolic acid diet minus control diet) (mice, gastrocnemius): 0.21 log2
- BC004004 mRNA Change (mean log2, ursolic acid diet minus control diet) (mice, gastrocnemius): 0.06 log2
- C3 mRNA Change (mean log2, ursolic acid diet minus control diet) (mice, gastrocnemius): 0.70 log2
- Cacna1s mRNA Change (mean log2, ursolic acid diet minus control diet) (mice, gastrocnemius): −0.22 log2
- Cd24a mRNA Change (mean log2, ursolic acid diet minus control diet) (mice, gastrocnemius): 0.28 log2
- Ctsb mRNA Change (mean log2, ursolic acid diet minus control diet) (mice, gastrocnemius): 0.16 log2
- D0H4S114 mRNA Change (mean log2, ursolic acid diet minus control diet) (mice, gastrocnemius): 0.15 log2
- D4Wsu53e mRNA Change (mean log2, ursolic acid diet minus control diet) (mice, gastrocnemius): −0.18 log2
- Ddit4l mRNA Change (mean log2, ursolic acid diet minus control diet) (mice, gastrocnemius): −0.32 log2
- Eef1e1 mRNA Change (mean log2, ursolic acid diet minus control diet) (mice, gastrocnemius): 0.15 log2
- Eif4g3 mRNA Change (mean log2, ursolic acid diet minus control diet) (mice, gastrocnemius): −0.12 log2
- Fbp2 mRNA Change (mean log2, ursolic acid diet minus control diet) (mice, gastrocnemius): 0.37 log2
- Fbxo32 (Atrogin-1) mRNA Change (mean log2, ursolic acid diet minus control diet) (mice, gastrocnemius): −0.35 log2
- Fhl3 mRNA Change (mean log2, ursolic acid diet minus control diet) (mice, gastrocnemius): 0.31 log2
- Fmo1 mRNA Change (mean log2, ursolic acid diet minus control diet) (mice, gastrocnemius): 0.47 log2
- Foxn3 mRNA Change (mean log2, ursolic acid diet minus control diet) (mice, gastrocnemius): −0.09 log2
- Gfm1 mRNA Change (mean log2, ursolic acid diet minus control diet) (mice, gastrocnemius): 0.12 log2
- Ggct mRNA Change (mean log2, ursolic acid diet minus control diet) (mice, gastrocnemius): 0.24 log2
- Ghitm mRNA Change (mean log2, ursolic acid diet minus control diet) (mice, gastrocnemius): 0.05 log2
- Golga4 mRNA Change (mean log2, ursolic acid diet minus control diet) (mice, gastrocnemius): −0.14 log2
- Gpx1 mRNA Change (mean log2, ursolic acid diet minus control diet) (mice, gastrocnemius): 0.36 log2
- H19 mRNA Change (mean log2, ursolic acid diet minus control diet) (mice, gastrocnemius): 0.39 log2
- Hipk2 mRNA Change (mean log2, ursolic acid diet minus control diet) (mice, gastrocnemius): 0.38 log2
- Hk2 mRNA Change (mean log2, ursolic acid diet minus control diet) (mice, gastrocnemius): 0.26 log2
- Hspb8 mRNA Change (mean log2, ursolic acid diet minus control diet) (mice, gastrocnemius): 0.32 log2
- Hsph1 mRNA Change (mean log2, ursolic acid diet minus control diet) (mice, gastrocnemius): 0.30 log2
- Igf1 mRNA Change (mean log2, ursolic acid diet minus control diet) (mice, gastrocnemius): 0.56 log2
- Klhl31 mRNA Change (mean log2, ursolic acid diet minus control diet) (mice, gastrocnemius): −0.09 log2
- Krr1 mRNA Change (mean log2, ursolic acid diet minus control diet) (mice, gastrocnemius): 0.15 log2
- Lsm14a mRNA Change (mean log2, ursolic acid diet minus control diet) (mice, gastrocnemius): 0.18 log2
- Lum mRNA Change (mean log2, ursolic acid diet minus control diet) (mice, gastrocnemius): 0.61 log2
- Lyz2 mRNA Change (mean log2, ursolic acid diet minus control diet) (mice, gastrocnemius): 0.71 log2
- Mlec mRNA Change (mean log2, ursolic acid diet minus control diet) (mice, gastrocnemius): −0.19 log2
- Mrpl46 mRNA Change (mean log2, ursolic acid diet minus control diet) (mice, gastrocnemius): 0.15 log2
- Musk mRNA Change (mean log2, ursolic acid diet minus control diet) (mice, gastrocnemius): 0.31 log2
- Nampt mRNA Change (mean log2, ursolic acid diet minus control diet) (mice, gastrocnemius): 0.41 log2
- Ndufaf4 mRNA Change (mean log2, ursolic acid diet minus control diet) (mice, gastrocnemius): 0.14 log2
- Ndufs2 mRNA Change (mean log2, ursolic acid diet minus control diet) (mice, gastrocnemius): 0.14 log2
- Ndufs4 mRNA Change (mean log2, ursolic acid diet minus control diet) (mice, gastrocnemius): 0.14 log2
- Nnt mRNA Change (mean log2, ursolic acid diet minus control diet) (mice, gastrocnemius): −0.24 log2
- Npc1 mRNA Change (mean log2, ursolic acid diet minus control diet) (mice, gastrocnemius): 0.22 log2
- Nrap mRNA Change (mean log2, ursolic acid diet minus control diet) (mice, gastrocnemius): −0.14 log2
- Ostn mRNA Change (mean log2, ursolic acid diet minus control diet) (mice, gastrocnemius): 0.43 log2
- Paip2b mRNA Change (mean log2, ursolic acid diet minus control diet) (mice, gastrocnemius): −0.16 log2
- Parp3 mRNA Change (mean log2, ursolic acid diet minus control diet) (mice, gastrocnemius): 0.32 log2
- Pde4dip mRNA Change (mean log2, ursolic acid diet minus control diet) (mice, gastrocnemius): −0.18 log2
- Pdha1 mRNA Change (mean log2, ursolic acid diet minus control diet) (mice, gastrocnemius): 0.18 log2
- Pnn mRNA Change (mean log2, ursolic acid diet minus control diet) (mice, gastrocnemius): −0.18 log2
- Prdx5 mRNA Change (mean log2, ursolic acid diet minus control diet) (mice, gastrocnemius): 0.10 log2
- Psma2 mRNA Change (mean log2, ursolic acid diet minus control diet) (mice, gastrocnemius): 0.15 log2
- Sepp1 mRNA Change (mean log2, ursolic acid diet minus control diet) (mice, gastrocnemius): 0.35 log2
- Sepx1 mRNA Change (mean log2, ursolic acid diet minus control diet) (mice, gastrocnemius): 0.28 log2
- Sfpq mRNA Change (mean log2, ursolic acid diet minus control diet) (mice, gastrocnemius): −0.18 log2
- Sfrs5 mRNA Change (mean log2, ursolic acid diet minus control diet) (mice, gastrocnemius): −0.22 log2
- Smox mRNA Change (mean log2, ursolic acid diet minus control diet) (mice, gastrocnemius): 0.81 log2
- Sod2 mRNA Change (mean log2, ursolic acid diet minus control diet) (mice, gastrocnemius): 0.12 log2
- Sqstm1 mRNA Change (mean log2, ursolic acid diet minus control diet) (mice, gastrocnemius): 0.12 log2
- Ssr4 mRNA Change (mean log2, ursolic acid diet minus control diet) (mice, gastrocnemius): 0.14 log2
- Trappc2l mRNA Change (mean log2, ursolic acid diet minus control diet) (mice, gastrocnemius): 0.16 log2
- Trip10 mRNA Change (mean log2, ursolic acid diet minus control diet) (mice, gastrocnemius): 0.23 log2
- Tyrobp mRNA Change (mean log2, ursolic acid diet minus control diet) (mice, gastrocnemius): 0.69 log2
- Ube2l3 mRNA Change (mean log2, ursolic acid diet minus control diet) (mice, gastrocnemius): 0.16 log2
- Vps29 mRNA Change (mean log2, ursolic acid diet minus control diet) (mice, gastrocnemius): 0.20 log2
